In patent US20230364032A1, “USE OF 2-HOBA TO TREAT ATHEROSCLEROSIS” (Vanderbilt University, priority 2020, published 2023):
Several values for one entry are separate records, joined by “and”; a condition that tells them apart may be missing. Equal entries are not always repeated. Entries after “also recorded” stand apart in the source; their conditions may differ.

How the values were obtained:
[1] = system: hypercholesterolemic Ldlr−/− mice; assay: Atherosclerosis in western-diet-fed Ldlr−/− mice (Oil-Red-O proximal aorta sections and en face aorta); format: in vivo, mouse; conditions: western diet 16 weeks; for effect on atherosclerosis: hypercholesterolemic Ldlr−/− mice
Protocol: Ldlr^−/− and WT on C57BL/6 background mice were obtained from the Jackson Laboratory. Animal protocols were performed according to the regulations of Vanderbilt University's Institutional Animal Care and Usage Committee. Mice were maintained on chow or a Western-type diet containing 21% milk fat and 0.15% cholesterol (Teklad). Eight week old, female Ldlr^−/− mice on a chow diet were pretreated with vehicle alone (Water) or containing either 1 g/L of 4-HOBA or 1 g/L of 2-HOBA. 4-HOBA (as hydrochloride salt) was synthesized as previously described^21. 2-HOBA (as the acetate salt, CAS 1206675-01-5) was manufactured by TSI Co., Ltd. (Missoula, MT) and obtained from Metabolic Technologies, Inc., Ames, IA^24. A commercial production lot was used (Lot 16120312), and the purity of the commercial lot was verified to be >99% via HPLC and NMR spectroscopy^24. After two weeks, the mice continued to receive these treatments but were switched to a western diet for 16 weeks to induce hypercholesterolemia and atherosclerosis. Similarly, 12 week-old male Ldlr^−/− mice were pretreated with vehicle alone (water) or containing 1 g/L of 2-HOBA for two weeks and were then switched to a western diet for 16 weeks to induce hypercholesterolemia and atherosclerosis, while continuing the treatment with 2-HOBA or water alone^58, 59, 60 Based on the average weight and daily consumption of water per mouse the estimated daily dosage with 1 g/L of 2-HOBA is 200 mg/Kg. […] Eight week old, male Ldlr^−/− mice were fed a western diet for 16 weeks and were continuously treated with water containing either 2-HOBA or 4-HOBA. Urine samples were collected using metabolic cages (2 mice in one cage) during 18 h after oral gavage with either 2-HOBA or 4-HOBA (5 mg each mouse).
The extent of atherosclerosis was examined both Oil-Red-O-stained cross-sections of the proximal aorta and by en face analysis^30. Briefly, cryosections of 10-micron thickness were cut from the region of the proximal aorta starting from the end of the aortic sinus and for 300 μm distally, according to the method of Paigen et al.^62. The Oil red-O staining of 15 serial sections from the root to ascending aortic region were used to quantify the Oil red-O-positive staining area per mouse. The mean from the 15 serial sections was applied for the aortic root atherosclerotic lesion size per mouse using the KS300 imaging system (Kontron Elektronik GmbH) as described^63, 64, 65. All other stains were done using sections that were 40 to 60 μm distal of the aortic sinus. For each mouse, 4 sections were stained and quantitation was done on the entire cross section of all 4 sections. For immunofluorescence staining, 5 μm cross-sections of the proximal aorta were fixed in cold acetone (Sigma), blocked in Background Buster (Innovex), incubated with indicated primary antibodies (MDA and CD68) at 4° C. for overnight. After incubation with fluorescent labeled secondary antibodies at 37 C for 1 hour, the nucleus was counterstained with Hoechst. Images were captured with a fluorescence microscope (Olympus IX81) and SlideBook 6 (Intelligent-Image) software and quantitated using ImageJ software (NIH)^66.

[2] = system: MDA; assay: HOBA-MDA adducts in macrophages incubated with ox-LDL (LC-MS/MS); format: cell-based, mouse; conditions: 24 h; for HOBA-MDA (propenal-HOBA) adducts in macrophages: macrophages treated with oxidized LDL, 2-HOBA versus 4-HOBA
Protocol: Peritoneal macrophages were isolated from C57BL/6J mice and incubated with 50 μg/mL ox-LDL, and treated with either 250 μm 2-HOBA or 4-HOBA (18A), or 5 μm of 2-HOBA or 4-HOBA (18B, 18C, 18D) for 24 h. Cell samples were collected and the HOBA-MDA adducts were measured using LC-MS/MS as described in supplemental methods. * p<0.05, One-way ANOVA with Bonferroni's post hoc test.
The scavenger-MDA adducts were extracted, (1) from homogenate of tissue (equivalent of 30 mg) or (2) from cells (1 ml), three times with 500 μl of ethyl acetate. The extract was dried down, resuspended in 100 μl of ACN-water (1:1, v/v with 0.1% formic acid), vortexed, and filtered through a 0.22 μm spin X column. The reactions were analyzed by LC-EST/MS/MS using the column a Phenomenex Kinetex column at a flow rate of 0.1 ml/min. The gradient consisted of Solvent A, water with 0.2% formic acid and solvent B, acetonitrile with 0.2% formic acid. The gradient was as follows: 0-2 min 99.9% A, 2-9 min 99.9-0.1% A, 9-12 min 99.9% B. The mass spectrometer was operated in the positive ion mode, and the spray voltage was maintained at 5,000 V. Nitrogen was used for the sheath gas and auxiliary gas at pressures of 30 and 5 arbitrary units, respectively. The optimized skimmer offset was set at 10, capillary temperature was 300° C., and the tube lens voltage was specific for each compound. SRM of specific transition ions for the precursor ions at m/z 178→107 (propenal-HOBA adduct).

[3] = system: Phospho-Akt (S473); assay: Akt signaling in macrophages (phospho-Akt Western blot); format: cell-based, mouse; conditions: 250 μM, 1 hour; absence and presence of insulin; vehicle, 4-HOBA, 2-HOBA compared
Protocol: WT macrophages were treated with or without vehicle (water), 250 μM 4-HOBA or 2-HOBA for 1 hour, and then incubated with or without 100 nM insulin as indicated for 15 min. Phospho-Akt (S473) and GAPDH were detected by Western Blotting (19A). The band density was quantitated by ImageJ software (19B). Two independent experiments were performed.

[4] = male Ldlr−/− mice, 1 g/L, compared to water

## NCc1ccc(O)cc1 [4-HOBA, 4-hydroxybenzylamine, reference compound]
[1]; 1 g/L
  effect on atherosclerosis: not atheroprotective
[2]
  HOBA-MDA (propenal-HOBA) adducts in macrophages: undetectable
[3]
  pAKT levels in macrophages: no difference

## NCc1ccccc1O [2-HOBA, 2-hydroxybenzylamine]
[1]; female Ldlr−/− mice, 1 g/L in water, compared to 4-HOBA
  reduction of extent of proximal aortic atherosclerosis: 31.5%
[1]; female Ldlr−/− mice, 1 g/L in water, compared to vehicle
  reduction of extent of proximal aortic atherosclerosis: 31% and 31.1%
[1]; female Ldlr−/− mice, 1 g/L, compared to 4-HOBA
  reduction of extent of aortic atherosclerosis, en face analysis: 59.1%
[1]; female Ldlr−/− mice, 1 g/L, compared to vehicle
  reduction of extent of aortic atherosclerosis, en face analysis: 60% and 60.3%
[1]; 1 g/L
  effect on atherosclerosis: attenuates atherosclerosis; also recorded: reduces atherosclerotic lesions
[1]; [4]
  reduction of extent of proximal aortic atherosclerosis: 37%
  reduction of extent of whole aorta atherosclerosis: 45%
[2]; cells incubated with 5 μM, ox-LDL
  propenal-2-HOBA, DHP-MDA-2-HOBA and crosslinked MDA-2-HOBA adducts in cells: significant levels of propenal-2-HOBA were formed
[2]
  HOBA-MDA (propenal-HOBA) adducts in macrophages: increased; also recorded: readily detected; also recorded: formation of 2-HOBA-MDA adducts
[3]
  pAKT levels in macrophages: no difference; also recorded: does not influence
